# In patent US7612065B2, “Inhibitors of c-JUN N-terminal kinases (JNK)” (priority 2007, dated 2009):
# Molecular target: T1, JNK3 (Homo sapiens, UniProt P53779)
# T1 construct: One such construct encodes amino acid residues Ser40-Glu402 of JNK3α1 and is preceded by Met and Gly residues; Met-Gly (initiation methionine plus glycine added for the NcoI site); made in house; host or cells: E. coli BL21 (DE3)
# Test: JNK inhibition assay: spectrophotometric coupled-enzyme assay with activated JNK3
# Assay type: biochemical
# Settings: activated JNK3 10 nM, 10 μM ATP, 200 μM EGF receptor peptide, 30° C., competitive inhibition model
# From the text: A BLAST search of the EST database using the published JNK3α1 cDNA as a query identified an EST clone (#632588) that contained the entire coding sequence for human JNK3α1. Polymerase chain reactions (PCR) using pfu polymerase (Strategene) were used to introduce restriction sites into the cDNA for cloning into the pET-15B expression vector at the NcoI and BamHI sites. The protein was expressed in E. coli. […] This truncation corresponds to Ser 2 of JNK1 and JNK2 proteins, and is preceded by a methionine (initiation) and a glycine residue. The glycine residue was added in order to introduce an NcoI site for cloning into the expression vector. In addition, systematic C-terminal truncations were performed by PCR to identify a construct that give rise to diffraction-quality crystals.
# 5 mg of JNK3 was diluted to 0.5 mg/ml in 50 mM HEPES buffer, pH 7.5, containing 100 mM NaCl, 5 mM DTT, 20 mM MgCl2 and 1 mM ATP. GST-MKK7(DD) was added at a molar ratio of 1:2.5 GST-MKK7:JNK3. After incubation for 30 minutes at 25° C., the reaction mixture was concentrated 5-fold by ultrafiltration in a Centriprep-30 (Amicon, Beverly, Mass.), diluted to 10 ml and an additional 1 mM ATP added. This procedure was repeated three times to remove ADP and replenish ATP. The final addition of ATP was 5 mM and the mixture incubated overnight at 4° C.
# The activated JNK3/GST-MKK7(DD) reaction mixture was exchanged into 50 mM HEPES buffer, pH 7.5, containing 5 mM DTT and 5% glycerol (w/v) by dialysis or ultrafiltration. The reaction mixture was adjusted to 1.1 M potassium phosphate, pH 7.5, and purified by hydrophobic interaction chromatography (at 25° C.) using a Rainin Hydropore column. […] Activated JNK3 (i.e. doubly phosphorylated JNK3) was stored at −70° C. at 0.25-1 mg/ml.
# Compounds were assayed for the inhibition of JNK3 by a spectrophotometric coupled-enzyme assay. In this assay, a fixed concentration of activated JNK3 (10 nM) was incubated with various concentrations of a potential inhibitor dissolved in DMSO for 10 minutes at 30° C. in a buffer containing 0.1 M HEPES buffer, pH 7.5, containing 10 mM MgCl2, 2.5 mM phosphoenolpyruvate, 200 μM NADH, 150 μg/mL pyruvate kinase, 50 μg/mL lactate dehydrogenase, and 200 μM EGF receptor peptide. […] The reaction was initiated by the addition of 10 μM ATP and the assay plate is inserted into the spectrophotometer's assay plate compartment that was maintained at 30° C. The decrease of absorbance at 340 nm was monitored as a function of time. The rate data as a function of inhibitor concentration was fitted to competitive inhibition kinetic model to determine the Ki.
# T1 sequence (P53779 40-402): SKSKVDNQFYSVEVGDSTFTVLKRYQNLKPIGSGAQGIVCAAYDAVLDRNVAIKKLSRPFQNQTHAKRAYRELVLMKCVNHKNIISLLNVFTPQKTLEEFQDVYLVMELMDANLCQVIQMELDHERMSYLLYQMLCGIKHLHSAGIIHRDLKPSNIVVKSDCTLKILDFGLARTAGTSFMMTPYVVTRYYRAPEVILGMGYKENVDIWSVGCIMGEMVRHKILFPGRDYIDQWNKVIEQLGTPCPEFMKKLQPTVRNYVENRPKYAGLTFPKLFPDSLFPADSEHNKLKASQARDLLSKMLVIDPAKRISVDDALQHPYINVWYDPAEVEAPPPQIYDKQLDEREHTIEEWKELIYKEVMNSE
row,Compound,Ki [µM]
1,O=C1c2ccccc2C(=O)N1CCCN1C(=O)/C(=N\O)c2ccc(-c3ccccc3)cc21 [Compound 161],≥ 1
2,O=C1/C(=N\O)c2cc(Cl)ccc2N1Cc1cccc(Oc2ccccc2)c1 [Compound 73],≥ 1
3,Cc1cc(Cl)cc2c1N(Cc1cc(F)cc3c1OCOC3)C(=O)/C2=N\O [Compound 103],< 1
4,O=C(Nc1ccc2c(c1)N(Cc1cc(F)cc3c1OCOC3)C(=O)/C2=N\O)c1csc(C2COc3ccccc3O2)n1 (stereo not shown) [Compound 222],≥ 1
5,CCCC(=O)Nc1ccc2c(c1)N(Cc1cc(F)cc3c1OCOC3)C(=O)/C2=N\O [Compound 224],< 1
6,COC(=O)CCCN1C(=O)/C(=N/O)c2ccc(CBr)cc21 [Compound 190],≥ 1
7,O=C(Nc1ccc2c(c1)N(Cc1cc(F)cc3c1OCOC3)C(=O)/C2=N\O)c1ccccc1 [Compound 247],< 1
8,O=C1/C(=N\O)c2ccccc2N1Cc1c(Cl)cccc1Cl [Compound 2],< 1
9,COC(=O)c1cccc(CN2C(=O)/C(=N/O)c3ccc(CBr)cc32)c1 [Compound 189],< 1
10,Cc1ccccc1C(=O)c1ccc2c(c1)/C(=N\O)C(=O)N2Cc1cc(F)cc2c1OCOC2 [Compound 268],< 1
11,N#Cc1ccccc1CN1C(=O)/C(=N\O)c2cc(F)ccc21 [Compound 80],≥ 1
12,CCC(=O)Nc1ccc2c(c1)N(Cc1cc(F)cc3c1OCOC3)C(=O)/C2=N\O [Compound 344],< 1
13,O=C1/C(=N\O)c2cc(Br)ccc2N1Cc1ccc(F)cc1 [Compound 24],≥ 1
14,O=C1/C(=N\O)c2ccccc2N1Cc1ccc(Cl)cc1 [Compound 10],≥ 1
15,O=C1/C(=N\O)c2cc(Cl)ccc2N1Cc1ccccc1 [Compound 45],≥ 1
16,COCC(=O)Nc1ccc2c(c1)N(Cc1cc(F)cc3c1OCOC3)C(=O)/C2=N\O [Compound 214],< 1
17,O=C1/C(=N\O)c2c(-c3cccc(F)c3)cccc2N1Cc1cc(F)cc2c1OCOC2 [Compound 203],≥ 1
18,COc1ccc(C(=O)Nc2ccc3c(c2)N(Cc2cc(F)cc4c2OCOC4)C(=O)/C3=N\O)cc1OC [Compound 339],≥ 1
19,CCOC(=O)CCNC(=O)c1ccc2c(c1)N(Cc1cc(F)cc3c1OCOC3)C(=O)/C2=N\O [Compound 296],≥ 1
20,COc1cc(CN2C(=O)/C(=N\O)c3c(C)cc(C)cc32)cc(OC)c1 [Compound 166],< 1
21,O=C(Nc1ccc2c(c1)N(Cc1cc(F)cc3c1OCOC3)C(=O)/C2=N\O)N1CCOCC1 [Compound 257],≥ 1
22,COc1cc(CN2C(=O)/C(=N\O)c3cc(C)cc(C)c32)cc(OC)c1 [Compound 94],≥ 1
23,O=C1/C(=N\O)c2ccccc2N1Cc1cccc(C(F)(F)F)c1 [Compound 6],≥ 1

row,Compound,Ki [µM]
1,O=C1/C(=N\O)c2ccccc2N1Cc1ccc(F)cc1 [Compound 17],≥ 1
2,O=C(Nc1ccc2c(c1)N(Cc1cc(F)cc3c1OCOC3)C(=O)/C2=N\O)c1cccc(Cl)c1 [Compound 255],< 1
3,O=C1/C(=N\O)c2cc(Cl)ccc2N1Cc1c(Cl)cccc1Cl [Compound 4],< 1
4,COc1ccc2c(CN3C(=O)/C(=N/O)c4ccc(CBr)cc43)cc(=O)oc2c1 [Compound 188],≥ 1
5,O=C1/C(=N\O)c2cc(-c3c(F)cccc3F)ccc2N1Cc1ccccc1 [Compound 157],≥ 1
6,Cc1ccc(-c2ccc3c(c2)N(Cc2cc(F)cc4c2OCOC4)C(=O)/C3=N\O)cc1C [Compound 331],< 1
7,COc1ccc(C(=O)Nc2ccc3c(c2)N(Cc2cc(F)cc4c2OCOC4)C(=O)/C3=N\O)cc1 [Compound 338],≥ 1
8,COc1ccccc1-c1nc(CN2C(=O)/C(=N\O)c3cc(F)ccc32)no1 [Compound 81],≥ 1
9,Nc1ccc2c(c1)N(Cc1cc(F)cc3c1OCOC3)C(=O)/C2=N\O [Compound 208],< 1
10,CCC(NC(=O)c1ccc2c(c1)N(Cc1cc(F)cc3c1OCOC3)C(=O)/C2=N\O)c1ccccc1 (stereo not shown) [Compound 243],≥ 1
11,O=C1/C(=N\O)c2cc(Br)ccc2N1Cc1ccccc1 [Compound 23],≥ 1
12,O=C1/C(=N\O)c2cc([N+](=O)[O-])ccc2N1Cc1ccc(Cl)cc1Cl [Compound 11],≥ 1
13,O=C1/C(=N/O)c2ccc(-c3ccsc3)cc2N1CCOc1ccccc1 [Compound 183],≥ 1
14,Cc1cccc(CN2C(=O)/C(=N\O)c3ccccc32)c1 [Compound 19],≥ 1
15,O=C(NCc1cccc(Cl)c1)c1ccc2c(c1)N(Cc1cc(F)cc3c1OCOC3)C(=O)/C2=N\O [Compound 234],≥ 1
16,Cc1cc2c(cc1C(=O)c1ccccc1)/C(=N/O)C(=O)N2Cc1cc(F)cc2c1OCOC2 [Compound 351],≥ 1
17,O=C1/C(=N\O)c2cc(Cl)ccc2N1Cc1ccc(Cl)cc1 [Compound 3],≥ 1
18,O=C1/C(=N\O)c2ccc(-c3ccccc3)cc2N1CC1OCCO1 [Compound 163],≥ 1
19,COc1ccc(CN2C(=O)/C(=N\O)c3cc(Cl)ccc32)cc1 [Compound 72],≥ 1
20,COc1cc(CN2C(=O)/C(=N\O)c3ccc([N+](=O)[O-])cc32)cc(OC)c1 [Compound 198],≥ 1
21,O=C1/C(=N\O)c2cc(Cl)ccc2N1Cc1csc(-c2ccc(Cl)cc2)n1 [Compound 77],< 1
22,O=C1/C(=N\O)c2cc(F)ccc2N1Cc1cccc(Oc2ccccc2)c1 [Compound 82],≥ 1
23,O=C1/C(=N\O)c2c(-c3ccc(F)cc3)cccc2N1Cc1cc(F)cc2c1OCOC2 [Compound 204],≥ 1

row,Compound,Ki [µM]
1,Cc1ccc(CN2C(=O)/C(=N\O)c3cc(Br)ccc32)cc1 [Compound 26],≥ 1
2,O=C1/C(=N\O)c2cc(Cl)ccc2N1Cc1ccc(F)cc1 [Compound 46],≥ 1
3,O=C1/C(=N\O)c2ccccc2N1Cc1ccc([N+](=O)[O-])cc1 [Compound 18],≥ 1
4,CCc1cccc2c1/C(=N/O)C(=O)N2Cc1cc(F)cc2c1OCOC2 [Compound 325],≥ 1
5,COc1cc(CN2C(=O)/C(=N\O)c3cc(NC(=O)CCc4ccccc4)ccc32)cc(OC)c1 [Compound 131],≥ 1
6,O=C1/C(=N\O)c2cc(F)ccc2N1Cc1cccc([N+](=O)[O-])c1 [Compound 79],≥ 1
7,O=C1/C(=N\O)c2ccc(-c3ccccc3C(F)(F)F)cc2N1Cc1cc(F)cc2c1OCOC2 [Compound 314],≥ 1
8,O=C(Nc1ccc2c(c1)/C(=N/O)C(=O)N2Cc1ccccc1)c1cccc2ccccc12 [Compound 136],≥ 1
9,CN(C)CCNC(=O)c1ccc2c(c1)N(Cc1cc(F)cc3c1OCOC3)C(=O)/C2=N\O [Compound 295],≥ 1
10,O=C1/C(=N\O)c2cc([N+](=O)[O-])ccc2N1Cc1cc(F)cc2c1OCOC2 [Compound 284],≥ 1
11,CS(=O)(=O)c1ccc(CN2C(=O)/C(=N\O)c3ccccc32)cc1 [Compound 67],≥ 1
12,O=C1/C(=N\O)c2cc(F)ccc2N1Cc1cccc(F)c1 [Compound 58],≥ 1
13,O=C(Nc1ccc2c(c1)N(Cc1cc(F)cc3c1OCOC3)C(=O)/C2=N\O)c1cccc(Cl)c1Cl [Compound 251],< 1
14,COc1cccc(C(=O)Nc2ccc3c(c2)/C(=N/O)C(=O)N3Cc2ccccc2)c1 [Compound 120],≥ 1
15,CC(=O)OC(C(=O)Nc1ccc2c(c1)N(Cc1cc(F)cc3c1OCOC3)C(=O)/C2=N/O)c1ccccc1 (stereo not shown) [Compound 322],≥ 1
16,CN1CCCC1CCNC(=O)c1ccc2c(c1)N(Cc1cc(F)cc3c1OCOC3)C(=O)/C2=N\O (stereo not shown) [Compound 297],≥ 1
17,CC(C)CNC(=O)c1ccc2c(c1)N(Cc1cc(F)cc3c1OCOC3)C(=O)/C2=N\O [Compound 287],≥ 1
18,O=C(NCc1cccnc1)c1ccc2c(c1)N(Cc1cc(F)cc3c1OCOC3)C(=O)/C2=N\O [Compound 237],≥ 1
19,O=C(Nc1ccc2c(c1)N(Cc1cc(F)cc3c1OCOC3)C(=O)/C2=N\O)N1CCOCC1 [Compound 269],< 1
20,COc1cc(CN2C(=O)/C(=N\O)c3ccc(Br)cc32)cc(OC)c1 [Compound 151],< 1
21,Cc1cc(Cl)cc2c1N(Cc1ccccn1)C(=O)/C2=N\O [Compound 104],≥ 1
